Data as given in US12077503B2, “Substituted cyclic amides and their use as herbicides” (FMC CORPORATION, priority 2015, dated 2024).

Assays:
Format in all cases: in vivo
[1] = tested on: giant foxtail (Setaria faberi); assay: Test G Pre-Emergence Protocol; conditions: Setaria faberi, pre-emergence, 312 h, evaluated after 13 days; for pest or weed control at 15.625 g/ha: 15.625 g ai/ha; for pest or weed control at 15.625 g/ha / pest or weed control at 250 g/ha: read-out: Foxtail, Giant damage rating (100=total damage to plant; 0=no damage to plant); for pest or weed control at 62.5 g/ha: 62.5 g ai/ha, 100=total damage to plant, 0=no damage to plant, read-out: plant damage rating, Foxtail, Giant; for pest or weed control at 250 g/ha: 250 g ai/ha
How it was run: (§1)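 Pots of seeds in standard soil were grown for one day in a glasshouse (24/16 °C day/night, 14 h light, 65% humidity), then sprayed with compound in acetone/water 50:50 with 0.5% Tween 20 at 15.625, 62.5 or 250 g/ha. Damage was scored after 13 days on a 0 (none) to 100 (total) scale.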

[2] = tested on: barnyardgrass (Echinochloa crus-galli); assay: Test G Pre-Emergence Protocol; conditions: Echinochloa crus-galli, pre-emergence, 312 h, evaluated after 13 days; for pest or weed control at 15.625 g/ha: 15.625 g ai/ha, read-out: Barnyard grass damage rating (100=total damage to plant; 0=no damage to plant); for pest or weed control at 62.5 g/ha: 62.5 g ai/ha, 100=total damage to plant, 0=no damage to plant, read-out: plant damage rating, Barnyardgrass; for pest or weed control at 250 g/ha: 250 g ai/ha, read-out: Barnyardgrass damage rating (100=total damage to plant; 0=no damage to plant)
How it was run: as §1

[3] = tested on: ivy-leaved morning glory (Ipomoea hederacea); assay: Test G Pre-Emergence Protocol; conditions: Ipomoea, pre-emergence, 312 h, evaluated after 13 days; for pest or weed control at 15.625 g/ha: 15.625 g ai/ha, read-out: Morning-glory, Ivy-leaved damage rating (100=total damage to plant; 0=no damage to plant); for pest or weed control at 62.5 g/ha: 62.5 g ai/ha, 100=total damage to plant, 0=no damage to plant, read-out: plant damage rating, Morningglory, Ivy-leaved; for pest or weed control at 250 g/ha: 250 g ai/ha, read-out: Morningglory, Ivy-leaved damage rating (100=total damage to plant; 0=no damage to plant)
How it was run: as §1

corn (Zea mays) [4] = assay: Test G Pre-Emergence Protocol; conditions: Zea mays, pre-emergence, 312 h, evaluated after 13 days; for plant injury at 15.625 g/ha: 15.625 g ai/ha; for plant injury at 15.625 g/ha / plant injury at 250 g/ha: read-out: Corn damage rating (100=total damage to plant; 0=no damage to plant); for plant injury at 62.5 g/ha: 62.5 g ai/ha, 100=total damage to plant, 0=no damage to plant, read-out: plant damage rating, Corn; for plant injury at 250 g/ha: 250 g ai/ha
How it was run: as §1

[5] = tested on: redroot pigweed (Amaranthus retroflexus); assay: Test G Pre-Emergence Protocol; conditions: Amaranthus retroflexus, pre-emergence, 312 h, evaluated after 13 days; for pest or weed control at 15.625 g/ha: 15.625 g ai/ha; for pest or weed control at 15.625 g/ha / pest or weed control at 250 g/ha: read-out: Pigweed, Redroot damage rating (100=total damage to plant; 0=no damage to plant); for pest or weed control at 62.5 g/ha: 62.5 g ai/ha, 100=total damage to plant, 0=no damage to plant, read-out: plant damage rating, Pigweed, Redroot; for pest or weed control at 250 g/ha: 250 g ai/ha
How it was run: as §1

[6] = tested on: velvetleaf (Abutilon theophrasti); assay: Test G Pre-Emergence Protocol; conditions: Abutilon theophrasti, pre-emergence, 312 h, evaluated after 13 days; for pest or weed control at 15.625 g/ha: 15.625 g ai/ha; for pest or weed control at 15.625 g/ha / pest or weed control at 250 g/ha: read-out: Velvetleaf damage rating (100=total damage to plant; 0=no damage to plant); for pest or weed control at 62.5 g/ha: 62.5 g ai/ha, 100=total damage to plant, 0=no damage to plant, read-out: plant damage rating, Velvetleaf; for pest or weed control at 250 g/ha: 250 g ai/ha
How it was run: as §1

[7] = tested on: giant foxtail (Setaria faberi); assay: Test G Post-Emergence Protocol; conditions: Setaria faberi, post-emergence, 312 h; for pest or weed control at 15.625 g/ha: 15.625 g ai/ha, evaluated after 13 days (100=total damage to plant; 0=no damage to plant), read-out: Foxtail, Giant damage rating; for pest or weed control at 62.5 g/ha: 62.5 g ai/ha, read-out: Foxtail, Giant damage rating (100=total damage to plant; 0=no damage to plant); for pest or weed control at 62.5 g/ha / pest or weed control at 250 g/ha: evaluated after 13 days; for pest or weed control at 250 g/ha: 250 g ai/ha, read-out: damage to plant, Foxtail, Giant (100=total damage to plant; 0=no damage to plant)
How it was run: (§2)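 Eight days post-sowing, plants received a spray of test compound (acetone/water 50:50, 0.5% Tween 20) at 15.625, 62.5 or 250 g/ha. Glasshouse regime thereafter: 24/16 °C, 14 h light, 65% humidity. Assessment after 13 days on a 0–100 damage scale.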

[8] = tested on: barnyardgrass (Echinochloa crus-galli); assay: Test G Post-Emergence Protocol; conditions: Echinochloa crus-galli, post-emergence, 312 h; for pest or weed control at 15.625 g/ha: 15.625 g ai/ha, evaluated after 13 days (100=total damage to plant; 0=no damage to plant), read-out: Barnyardgrass damage rating; for pest or weed control at 62.5 g/ha: 62.5 g ai/ha, read-out: Barnyardgrass damage rating (100=total damage to plant; 0=no damage to plant); for pest or weed control at 62.5 g/ha / pest or weed control at 250 g/ha: evaluated after 13 days; for pest or weed control at 250 g/ha: 250 g ai/ha, read-out: damage to plant, Barnyardgrass (100=total damage to plant; 0=no damage to plant)
How it was run: as §2

[9] = tested on: ivy-leaved morning glory (Ipomoea hederacea); assay: Test G Post-Emergence Protocol; conditions: Ipomoea, post-emergence, 312 h; for pest or weed control at 15.625 g/ha: 15.625 g ai/ha, evaluated after 13 days (100=total damage to plant; 0=no damage to plant), read-out: Morningglory, Ivy-leaved damage rating; for pest or weed control at 62.5 g/ha: 62.5 g ai/ha, read-out: Morningglory, Ivy-leaved damage rating (100=total damage to plant; 0=no damage to plant); for pest or weed control at 62.5 g/ha / pest or weed control at 250 g/ha: evaluated after 13 days; for pest or weed control at 250 g/ha: 250 g ai/ha, read-out: damage to plant, Morningglory, Ivy-leaved (100=total damage to plant; 0=no damage to plant)
How it was run: as §2

corn (Zea mays) [10] = assay: Test G Post-Emergence Protocol; conditions: Zea mays, post-emergence, 312 h; for plant injury at 15.625 g/ha: 15.625 g ai/ha, evaluated after 13 days (100=total damage to plant; 0=no damage to plant), read-out: Corn damage rating; for plant injury at 62.5 g/ha: 62.5 g ai/ha, read-out: Corn damage rating (100=total damage to plant; 0=no damage to plant); for plant injury at 62.5 g/ha / plant injury at 250 g/ha: evaluated after 13 days; for plant injury at 250 g/ha: 250 g ai/ha, read-out: damage to plant, Corn (100=total damage to plant; 0=no damage to plant)
How it was run: as §2

[11] = tested on: redroot pigweed (Amaranthus retroflexus); assay: Test G Post-Emergence Protocol; conditions: Amaranthus retroflexus, post-emergence, 312 h; for pest or weed control at 15.625 g/ha: 15.625 g ai/ha, evaluated after 13 days (100=total damage to plant; 0=no damage to plant), read-out: Pigweed, Redroot damage rating; for pest or weed control at 62.5 g/ha: 62.5 g ai/ha, read-out: Pigweed, Redroot damage rating (100=total damage to plant; 0=no damage to plant); for pest or weed control at 62.5 g/ha / pest or weed control at 250 g/ha: evaluated after 13 days; for pest or weed control at 250 g/ha: 250 g ai/ha, read-out: damage to plant, Pigweed, Redroot (100=total damage to plant; 0=no damage to plant)
How it was run: as §2

[12] = tested on: velvetleaf (Abutilon theophrasti); assay: Test G Post-Emergence Protocol; conditions: Abutilon theophrasti, post-emergence, 312 h; for pest or weed control at 15.625 g/ha: 15.625 g ai/ha, evaluated after 13 days (100=total damage to plant; 0=no damage to plant), read-out: Velvetleaf damage rating; for pest or weed control at 62.5 g/ha: 62.5 g ai/ha, read-out: Velvetleaf damage rating (100=total damage to plant; 0=no damage to plant); for pest or weed control at 62.5 g/ha / pest or weed control at 250 g/ha: evaluated after 13 days; for pest or weed control at 250 g/ha: 250 g ai/ha, read-out: damage to plant, Velvetleaf (100=total damage to plant; 0=no damage to plant)
How it was run: as §2

Cc1nccc(NC(=O)[C@@H]2C(=O)N(C)C[C@H]2c2ccc(C(F)(F)F)cc2)n1 (racemic) [Compound 1641]
0%: pest or weed control at 15.625 g/ha [1] | pest or weed control at 62.5 g/ha [1] | pest or weed control at 250 g/ha [1] | pest or weed control at 15.625 g/ha [2] | pest or weed control at 62.5 g/ha [2] | pest or weed control at 250 g/ha [2] | pest or weed control at 15.625 g/ha [3] | pest or weed control at 62.5 g/ha [3] | pest or weed control at 250 g/ha [3] | plant injury at 15.625 g/ha (corn (Zea mays) [4]) | plant injury at 62.5 g/ha (corn (Zea mays) [4]) | plant injury at 250 g/ha (corn (Zea mays) [4]) | pest or weed control at 15.625 g/ha [5] | pest or weed control at 62.5 g/ha [5] | pest or weed control at 250 g/ha [5] | pest or weed control at 15.625 g/ha [6] | pest or weed control at 62.5 g/ha [6] | pest or weed control at 250 g/ha [6] | pest or weed control at 15.625 g/ha [7] | pest or weed control at 62.5 g/ha [7] | pest or weed control at 250 g/ha [7] | pest or weed control at 15.625 g/ha [8] | pest or weed control at 62.5 g/ha [8] | pest or weed control at 250 g/ha [8] | pest or weed control at 15.625 g/ha [9] | pest or weed control at 62.5 g/ha [9] | pest or weed control at 250 g/ha [9] | plant injury at 15.625 g/ha (corn (Zea mays) [10]) | plant injury at 62.5 g/ha (corn (Zea mays) [10]) | plant injury at 250 g/ha (corn (Zea mays) [10]) | pest or weed control at 15.625 g/ha [11] | pest or weed control at 62.5 g/ha [11] | pest or weed control at 250 g/ha [11] | pest or weed control at 15.625 g/ha [12] | pest or weed control at 62.5 g/ha [12] | pest or weed control at 250 g/ha [12]

CN1C[C@@H](c2ccc(C(F)(F)F)cc2)[C@H](C(=O)Nc2ncnn2C)C1=O (racemic) [Compound 1643]
0%: pest or weed control at 15.625 g/ha [1] | pest or weed control at 62.5 g/ha [1] | pest or weed control at 250 g/ha [1] | pest or weed control at 15.625 g/ha [2] | pest or weed control at 62.5 g/ha [2] | pest or weed control at 250 g/ha [2] | pest or weed control at 15.625 g/ha [3] | pest or weed control at 62.5 g/ha [3] | pest or weed control at 250 g/ha [3] | plant injury at 15.625 g/ha (corn (Zea mays) [4]) | plant injury at 62.5 g/ha (corn (Zea mays) [4]) | plant injury at 250 g/ha (corn (Zea mays) [4]) | pest or weed control at 15.625 g/ha [5] | pest or weed control at 62.5 g/ha [5] | pest or weed control at 250 g/ha [5] | pest or weed control at 15.625 g/ha [6] | pest or weed control at 62.5 g/ha [6] | pest or weed control at 250 g/ha [6] | pest or weed control at 15.625 g/ha [7] | pest or weed control at 62.5 g/ha [7] | pest or weed control at 250 g/ha [7] | pest or weed control at 15.625 g/ha [8] | pest or weed control at 62.5 g/ha [8] | pest or weed control at 250 g/ha [8] | pest or weed control at 15.625 g/ha [9] | pest or weed control at 62.5 g/ha [9] | pest or weed control at 250 g/ha [9] | plant injury at 15.625 g/ha (corn (Zea mays) [10]) | plant injury at 62.5 g/ha (corn (Zea mays) [10]) | plant injury at 250 g/ha (corn (Zea mays) [10]) | pest or weed control at 15.625 g/ha [11] | pest or weed control at 62.5 g/ha [11] | pest or weed control at 250 g/ha [11] | pest or weed control at 15.625 g/ha [12] | pest or weed control at 62.5 g/ha [12] | pest or weed control at 250 g/ha [12]
